Measured values as given in PMC9926234, “Iterative computational design and crystallographic screening identifies potent inhibitors targeting the Nsp3 macrodomain of SARS-CoV-2” (Proceedings of the National Academy of Sciences of the …, 2023).
“And” between values parts separate entries of the source, which are not always exact repeats. Equal values may be shown once.

What follows are compounds tested on SARS-CoV-2 NSP3 Mac1 (assay: Overall hit call (binding in crystallographic soaking or the HTRF-based binding assay)). Conditions: not given.
Source text: Supplement pnas.2212931120.sd01.xlsx, sheet "Compound Summary" | column: HIT*

SMILES	HIT*
O[C@H]1CCCC[C@H]1Nc1ncnc2[nH]ccc12 (relative stereo) [SRH-0015]	Y
O=C(O)CC1CN(c2ncnc3[nH]c4cc(F)ccc4c23)CC2(CCC2)O1 (centres unmarked) [LL114_0024]	Y
Cl.O=C(O)C1CN(c2ncnc3[nH]c4cc(F)ccc4c23)CCO1 (centres unmarked) [LL114_0033]	Y
O=C(O)C(O)C1CCCN(c2ncnc3[nH]c4cc(F)ccc4c23)C1 (centres unmarked) [LL114_0036]	Y
O=C(O)[C@H]1[C@@H]2CN(c3ncnc4[nH]c5cc(F)ccc5c34)CC[C@@H]21 [LL114_0037]	Y
O=C(O)CCC1CN(c2ncnc3[nH]c4cc(F)ccc4c23)CCO1 (centres unmarked) [LL114_0041]	Y
Nc1nc(N2CC3(CCC3)C(F)(C(=O)O)C2)c2c(n1)[nH]c1cc(F)ccc12 (centres unmarked) [LL123_0016]	Y
O=C(O)C1CN(c2ncnc3[nH]c4cc(F)ccc4c23)CC12CCC2 (centres unmarked) [LL123_0020]	Y

Each compound was assayed against T1, SARS-CoV-2 NSP3 Mac1 (Severe acute respiratory syndrome coronavirus 2, UniProt P0DTD1) (assay: not given). Conditions: PanDDA 1-BDC of the event; compound stock 100 mM, Echo dispense volume 40 nl.
Type: binding

SMILES	1-BDC
Cl.O=C(O)C1CN(c2ncnc3[nH]c4cc(F)ccc4c23)CCO1 (centres unmarked) [LL114_0033]	0.15

Same assay, conditions: PanDDA 1-BDC of the event; compound stock 100 mM, Echo dispense volume 80 nl

SMILES	1-BDC
O=C(O)CC1CN(c2ncnc3[nH]c4cc(F)ccc4c23)CC2(CCC2)O1 (centres unmarked) [LL114_0024]	0.11
O=C(O)C(O)C1CCCN(c2ncnc3[nH]c4cc(F)ccc4c23)C1 (centres unmarked) [LL114_0036]	0.24
O=C(O)CCC1CN(c2ncnc3[nH]c4cc(F)ccc4c23)CCO1 (centres unmarked) [LL114_0041]	0.15
O=C(O)C1CN(c2ncnc3[nH]c4cc(F)ccc4c23)CC12CCC2 (centres unmarked) [LL123_0020]	0.12 and 0.17

Same assay, conditions: PanDDA event map 1-BDC; crystal soak, Compound_concentration 100 mM; PanDDA run dmso_34 or nohits_35 per dataset

SMILES	1-BDC
O[C@H]1CCCC[C@H]1Nc1ncnc2[nH]ccc12 (relative stereo) [SRH-0015]	0.13
O=C(O)CC1CN(c2ncnc3[nH]c4cc(F)ccc4c23)CC2(CCC2)O1 (centres unmarked) [LL114_0024]	0.06
Cl.O=C(O)C1CN(c2ncnc3[nH]c4cc(F)ccc4c23)CCO1 (centres unmarked) [LL114_0033]	0.15
O=C(O)C(O)C1CCCN(c2ncnc3[nH]c4cc(F)ccc4c23)C1 (centres unmarked) [LL114_0036]	0.2
O=C(O)CCC1CN(c2ncnc3[nH]c4cc(F)ccc4c23)CCO1 (centres unmarked) [LL114_0041]	0.15
O=C(O)C1CN(c2ncnc3[nH]c4cc(F)ccc4c23)CC12CCC2 (centres unmarked) [LL123_0020]	0.13

Same assay, conditions: PanDDA event map background density correction; crystal soak, compound concentration 100 mM

SMILES	1-BDC
Nc1nc(N2CC3(CCC3)C(F)(C(=O)O)C2)c2c(n1)[nH]c1cc(F)ccc12 (centres unmarked) [LL123_0016]	0.17

Same assay, conditions: PanDDA event map, 1 minus background density correction; crystal soaking of Mac1

SMILES	1-BDC (PanDDA)
O[C@H]1CCCC[C@H]1Nc1ncnc2[nH]ccc12 (relative stereo) [SRH-0015]	0.13
O=C(O)CC1CN(c2ncnc3[nH]c4cc(F)ccc4c23)CC2(CCC2)O1 (centres unmarked) [LL114_0024]	0.11
Cl.O=C(O)C1CN(c2ncnc3[nH]c4cc(F)ccc4c23)CCO1 (centres unmarked) [LL114_0033]	0.15
O=C(O)C(O)C1CCCN(c2ncnc3[nH]c4cc(F)ccc4c23)C1 (centres unmarked) [LL114_0036]	0.24
O=C(O)CCC1CN(c2ncnc3[nH]c4cc(F)ccc4c23)CCO1 (centres unmarked) [LL114_0041]	0.16
Nc1nc(N2CC3(CCC3)C(F)(C(=O)O)C2)c2c(n1)[nH]c1cc(F)ccc12 (centres unmarked) [LL123_0016]	0.17
O=C(O)C1CN(c2ncnc3[nH]c4cc(F)ccc4c23)CC12CCC2 (centres unmarked) [LL123_0020]	0.17

Same assay, conditions: PanDDA event map; crystal soak, Compound_concentration 100 mM, Echo_dispense_volume 40 nl

SMILES	1-BDC
O=C(O)CCC1CN(c2ncnc3[nH]c4cc(F)ccc4c23)CCO1 (centres unmarked) [LL114_0041]	0.16
Nc1nc(N2CC3(CCC3)C(F)(C(=O)O)C2)c2c(n1)[nH]c1cc(F)ccc12 (centres unmarked) [LL123_0016]	0.15
O=C(O)C1CN(c2ncnc3[nH]c4cc(F)ccc4c23)CC12CCC2 (centres unmarked) [LL123_0020]	0.17

Same assay, conditions: crystal soak, Compound_concentration 100 mM, Echo dispense 40 nl; PanDDA run dmso_34 or nohits_35 per dataset

SMILES	PanDDA hit?
O[C@H]1CCCC[C@H]1Nc1ncnc2[nH]ccc12 (relative stereo) [SRH-0015]	TRUE
O=C(O)CC1CN(c2ncnc3[nH]c4cc(F)ccc4c23)CC2(CCC2)O1 (centres unmarked) [LL114_0024]	TRUE
Cl.O=C(O)C1CN(c2ncnc3[nH]c4cc(F)ccc4c23)CCO1 (centres unmarked) [LL114_0033]	TRUE
O=C(O)C(O)C1CCCN(c2ncnc3[nH]c4cc(F)ccc4c23)C1 (centres unmarked) [LL114_0036]	TRUE
O=C(O)CCC1CN(c2ncnc3[nH]c4cc(F)ccc4c23)CCO1 (centres unmarked) [LL114_0041]	TRUE
O=C(O)C1CN(c2ncnc3[nH]c4cc(F)ccc4c23)CC12CCC2 (centres unmarked) [LL123_0020]	TRUE

Same assay, conditions: crystal soak, Compound_concentration 100 mM, Echo_dispense_volume 40 nl; PanDDA run (background map) dmso_34, nohits_35 or nohits_62

SMILES	PanDDA hit?
O=C(O)CCC1CN(c2ncnc3[nH]c4cc(F)ccc4c23)CCO1 (centres unmarked) [LL114_0041]	TRUE
Nc1nc(N2CC3(CCC3)C(F)(C(=O)O)C2)c2c(n1)[nH]c1cc(F)ccc12 (centres unmarked) [LL123_0016]	TRUE
O=C(O)C1CN(c2ncnc3[nH]c4cc(F)ccc4c23)CC12CCC2 (centres unmarked) [LL123_0020]	TRUE

Same assay, conditions: crystal soak, compound stock 100 mM, Echo dispense volume 40 nl

SMILES	PanDDA hit?
Cl.O=C(O)C1CN(c2ncnc3[nH]c4cc(F)ccc4c23)CCO1 (centres unmarked) [LL114_0033]	TRUE

Same assay, conditions: crystal soak, compound stock 100 mM, Echo dispense volume 80 nl

SMILES	PanDDA hit?
O=C(O)CC1CN(c2ncnc3[nH]c4cc(F)ccc4c23)CC2(CCC2)O1 (centres unmarked) [LL114_0024]	TRUE
O=C(O)C(O)C1CCCN(c2ncnc3[nH]c4cc(F)ccc4c23)C1 (centres unmarked) [LL114_0036]	TRUE
O=C(O)CCC1CN(c2ncnc3[nH]c4cc(F)ccc4c23)CCO1 (centres unmarked) [LL114_0041]	TRUE
O=C(O)C1CN(c2ncnc3[nH]c4cc(F)ccc4c23)CC12CCC2 (centres unmarked) [LL123_0020]	TRUE

Same assay, conditions: ligand modeled in structure; compound stock 100 mM, Echo dispense volume 40 nl

SMILES	Modeled?
Cl.O=C(O)C1CN(c2ncnc3[nH]c4cc(F)ccc4c23)CCO1 (centres unmarked) [LL114_0033]	TRUE

Same assay, conditions: ligand modeled in structure; compound stock 100 mM, Echo dispense volume 80 nl

SMILES	Modeled?
O=C(O)CC1CN(c2ncnc3[nH]c4cc(F)ccc4c23)CC2(CCC2)O1 (centres unmarked) [LL114_0024]	TRUE
O=C(O)C(O)C1CCCN(c2ncnc3[nH]c4cc(F)ccc4c23)C1 (centres unmarked) [LL114_0036]	TRUE

Same assay, conditions: ligand modeled in the crystal structure; crystal soak, compound concentration 100 mM

SMILES	Modeled?
Nc1nc(N2CC3(CCC3)C(F)(C(=O)O)C2)c2c(n1)[nH]c1cc(F)ccc12 (centres unmarked) [LL123_0016]	TRUE

Same assay, conditions: ligand modeled in this dataset; crystal soak, Compound_concentration 100 mM

SMILES	Modeled?
O[C@H]1CCCC[C@H]1Nc1ncnc2[nH]ccc12 (relative stereo) [SRH-0015]	TRUE

Same assay, conditions: ligand modeled; crystal soak, Compound_concentration 100 mM, Echo_dispense_volume 40 nl

SMILES	Modeled?
O=C(O)CCC1CN(c2ncnc3[nH]c4cc(F)ccc4c23)CCO1 (centres unmarked) [LL114_0041]	TRUE
O=C(O)C1CN(c2ncnc3[nH]c4cc(F)ccc4c23)CC12CCC2 (centres unmarked) [LL123_0020]	TRUE

Same assay, conditions: ligand occupancy after refinement (phenix.refine); crystal soaking of Mac1

SMILES	Refined occupancy
O[C@H]1CCCC[C@H]1Nc1ncnc2[nH]ccc12 (relative stereo) [SRH-0015]	26
O=C(O)CC1CN(c2ncnc3[nH]c4cc(F)ccc4c23)CC2(CCC2)O1 (centres unmarked) [LL114_0024]	22
Cl.O=C(O)C1CN(c2ncnc3[nH]c4cc(F)ccc4c23)CCO1 (centres unmarked) [LL114_0033]	30
O=C(O)C(O)C1CCCN(c2ncnc3[nH]c4cc(F)ccc4c23)C1 (centres unmarked) [LL114_0036]	48
O=C(O)CCC1CN(c2ncnc3[nH]c4cc(F)ccc4c23)CCO1 (centres unmarked) [LL114_0041]	32
Nc1nc(N2CC3(CCC3)C(F)(C(=O)O)C2)c2c(n1)[nH]c1cc(F)ccc12 (centres unmarked) [LL123_0016]	34
O=C(O)C1CN(c2ncnc3[nH]c4cc(F)ccc4c23)CC12CCC2 (centres unmarked) [LL123_0020]	34

Each compound was assayed against T1, SARS-CoV-2 NSP3 Mac1 (assay: biochemical). Conditions: HTRF ADPr-conjugated peptide displacement; read-out: IC50.
Type: binding

SMILES	IC50 [µM]
O=C(O)CC1CN(c2ncnc3[nH]c4cc(F)ccc4c23)CC2(CCC2)O1 (centres unmarked) [LL114_0024]	19.7
Cl.O=C(O)C1CN(c2ncnc3[nH]c4cc(F)ccc4c23)CCO1 (centres unmarked) [LL114_0033]	40.4
O=C(O)C(O)C1CCCN(c2ncnc3[nH]c4cc(F)ccc4c23)C1 (centres unmarked) [LL114_0036]	34.1
O=C(O)[C@H]1[C@@H]2CN(c3ncnc4[nH]c5cc(F)ccc5c34)CC[C@@H]21 [LL114_0037]	37.6
O=C(O)CCC1CN(c2ncnc3[nH]c4cc(F)ccc4c23)CCO1 (centres unmarked) [LL114_0041]	69.2
Nc1nc(N2CC3(CCC3)C(F)(C(=O)O)C2)c2c(n1)[nH]c1cc(F)ccc12 (centres unmarked) [LL123_0016]	24.5
O=C(O)C1CN(c2ncnc3[nH]c4cc(F)ccc4c23)CC12CCC2 (centres unmarked) [LL123_0020]	13.5

Same assay, conditions: HTRF ADPr-peptide displacement from SARS-CoV-2 Mac1; read-out: IC50

SMILES	IC50
O=C(O)CC1CN(c2ncnc3[nH]c4cc(F)ccc4c23)CC2(CCC2)O1 (centres unmarked) [LL114_0024]	19.6 µM and 20 µM
O=C(O)C1CN(c2ncnc3[nH]c4cc(F)ccc4c23)CC12CCC2 (centres unmarked) [LL123_0020]	14 µM

Same assay, conditions: IC50, HTRF ADPr-peptide displacement from SARS-CoV-2 Mac1

SMILES	IC50 [µM]
O[C@H]1CCCC[C@H]1Nc1ncnc2[nH]ccc12 (relative stereo) [SRH-0015]	132

Same assay, conditions: IC50 [µM], HTRF ADPr-conjugated peptide displacement

SMILES	IC50 [µM]
O[C@H]1CCCC[C@H]1Nc1ncnc2[nH]ccc12 (relative stereo) [SRH-0015]	132

Same assay, conditions: Ki*** [µM]

SMILES	Ki [µM]
O[C@H]1CCCC[C@H]1Nc1ncnc2[nH]ccc12 (relative stereo) [SRH-0015]	115

Same assay, conditions: read-out: Ki***

SMILES	Ki [µM]
O=C(O)CC1CN(c2ncnc3[nH]c4cc(F)ccc4c23)CC2(CCC2)O1 (centres unmarked) [LL114_0024]	17.1
Cl.O=C(O)C1CN(c2ncnc3[nH]c4cc(F)ccc4c23)CCO1 (centres unmarked) [LL114_0033]	35.2
O=C(O)C(O)C1CCCN(c2ncnc3[nH]c4cc(F)ccc4c23)C1 (centres unmarked) [LL114_0036]	29.7
O=C(O)[C@H]1[C@@H]2CN(c3ncnc4[nH]c5cc(F)ccc5c34)CC[C@@H]21 [LL114_0037]	32.7
O=C(O)CCC1CN(c2ncnc3[nH]c4cc(F)ccc4c23)CCO1 (centres unmarked) [LL114_0041]	60.2
Nc1nc(N2CC3(CCC3)C(F)(C(=O)O)C2)c2c(n1)[nH]c1cc(F)ccc12 (centres unmarked) [LL123_0016]	21.3
O=C(O)C1CN(c2ncnc3[nH]c4cc(F)ccc4c23)CC12CCC2 (centres unmarked) [LL123_0020]	11.7
